What was measured:
Hs578t cells = test: Survival of adherent cells in response to GPX4 inhibition (crystal violet); assay type: cell-based; settings: Hs578t
Experimental: (§1) Cell-based assays: Assays to assess survival in response to matrix detachment were performed as described (Brown C W, 2017). To assay survival in response to GPX4 inhibition, adherent cells in 96 well plates (1.0×10^4 per well) were treated with either DMSO, RSL3, ML210, FIN56 or erastin for 24 hrs with and without ferrostatin-1 or DFO. Subsequently, cells were fixed in 4% paraformaldehyde (Boston BioProducts), stained with crystal violet (Sigma) and read on a microplate reader (Beckman Colter) at absorbance 595. Absorbances were normalized to DMSO.

MCF10A cells = test: as above; assay type: cell-based
Experimental: as §1

prominin2 = test: PROM2 mRNA (qPCR) and prominin2 protein (immunoblot) expression in MCF10A cells; assay type: cell-based; settings: MCF10A, 10 uM KRIBB11, 25 uM 4HNE or 5 uM RSL3, 60 minutes
Experimental: Biochemical experiments: Immunoblotting and qPCR were performed as described (Brown C W, 2017). Briefly, for immunoblotting, cell lysates were extracted using radioimmunoprecipitation assay (RIPA) buffer (Boston Bioproducts). Extracts were separated by SDS PAGE using the specified antibodies. Immunoprecipitation was performed on lysates isolated using NP-40 buffer (Boston Bioproducts). Lysates were pre-cleared prior to overnight incubation with the primary antibody and protein A agarose beads (Sigma-Aldrich). Immune complexes were separated by SDS PAGE and immunoblotted as described in figure legends. RNA was isolated from cells (BioBasic) and cDNA was generated using the All in One cDNA Synthesis SuperMix (BioScript Solutions). qPCR was performed using a SYBR green master mix (BioScript Solutions). Sequences for primers used were as follows: […]

SW480 = test: Viability with RSL3 and KRIBB11 co-treatment; assay type: cell-based; settings: SW480, 10 uM KRIBB11, 24 hours
Experimental: as §1

HCC1806 = test: Viability with RSL3 and KRIBB11 co-treatment; assay type: cell-based; settings: HCC1806, 10 uM KRIBB11, 24 hours
Experimental: as §1

SW620 = test: Viability with RSL3 and KRIBB11 co-treatment; assay type: cell-based; settings: SW620, 10 uM KRIBB11, 24 hours
Experimental: as §1

HSF1 = HSF1 mRNA, protein, S326 phosphorylation and nuclear localization in MCF10A cells; assay type: cell-based; settings: 10 uM KRIBB11 with 4HNE or RSL3, 60 minutes
MDA-MB-231 cells = test: Survival of adherent cells in response to GPX4 inhibition (crystal violet); assay type: cell-based; settings: MDA-MB-231, prominin2 expression construct vs vector control
Experimental: as §1

cancer cell lines = settings: across hundreds of cancer cells lines; cited from earlier work

Structure (SMILES) | ability to resist RSL3-induced ferroptosis when co-treated with RSL3 and KRIBB11 (Hs578t cells; 10 uM KRIBB11, 24 hours) | death induced by RSL3, FIN56, erastin, or imidazole ketone erastin on chemical inhibition of HSF1 (MCF10A cells; otherwise resistant cells, cell line not named at b53, FIG. 16E: MCF10A) | upregulation of PROM2 mRNA and prominin2 protein expression in response to either 4HNE or RSL3 (prominin2) | ability to resist RSL3-induced ferroptosis when co-treated with RSL3 and KRIBB11 (SW480) | ability to resist RSL3-induced ferroptosis when co-treated with RSL3 and KRIBB11 (HCC1806) | ability to resist RSL3-induced ferroptosis when co-treated with RSL3 and KRIBB11 (SW620) | expression, phosphorylation and nuclear localization of HSF1 (HSF1) | sensitivity to compound in prominin2 knock-down cells compared to control cells (Hs578t cells; prominin2 siRNA 48 hours, compound 24 hrs) | cell death in response to compound with exogenous prominin2 expression (MDA-MB-231 cells) | sensitivity to compound in prominin2 knock-down cells compared to control cells (MCF10A cells; MCF10A, prominin2 siRNA 48 hours, compound 24 hrs) | correlation of high prominin2 expression with response to compound (cancer cell lines)
CNc1ccc([N+](=O)[O-])c(Nc2ccc3[nH]ncc3c2)n1 [KRIBB11, N(2)-(1H-indazole-5-yl)-N(6)-methyl-3-nitropyridine-2,6-diamine] | significantly reduced | sensitized otherwise resistant cells to death | prevented the upregulation | significantly reduced | significantly reduced | significantly reduced | neither the expression, phosphorylation nor nuclear localization of HSF1 was affected |  |  |  | 
Cc1onc(C(=O)N2CCN(C(c3ccc(Cl)cc3)c3ccc(Cl)cc3)CC2)c1[N+](=O)[O-] [ML210] |  |  |  |  |  |  |  | significant increase in sensitivity | sufficient to inhibit cell death | significant increase in sensitivity | significantly correlated with resistance
